Measurements: US20250019385A1, “SPIROCYCLIC ANNULATED 2-AMINO-3-CYANO THIOPHENES AND DERIVATIVES FOR THE TREATMENT OF CANCER” (Boehringer Ingelheim International GmbH, priority 2023, published 2025)
pIC50: −log10 of the molar value.

Assays:
[1] = target: KRAS (G12D)::CRAF protein::protein interaction (Homo sapiens (Human), UniProt P01116, G12D); assay: KRAS TR-FRET assay (KRAS G12D::CRAF, GTP); format: binding
Procedure: (§1) This assay measures the inhibitory effect of compounds on KRAS::CRAF protein::protein interactions in the presence of GTP using Time-resolved fluorescence energy transfer (TR-FRET).
(§2) The following wildtype or mutant alleles of KRAS and CRAF protein have been used at the given concentrations:
KRAS (G12D) 1-169, N-terminal 6His-tag, C-terminal avi-tag (Xtal BioStructures, Inc.); final assay concentration 15 nM,
(§3) CRAF Ras binding domain, GST-tag, TEV cleavage site (Boehringer Ingelheim in house protein prep); final assay concentration 15 nM.
(§4) Test compounds dissolved in DMSO were dispensed onto assay plates (Proxiplate 384 PLUS, white, PerkinElmer; 6008289) using an Access Labcyte Workstation with the Labcyte Echo 55x. For the chosen highest assay concentration of 100 μM, 150 nl of compound solution was transferred from a 10 mM DMSO compound stock solution. A series of eleven fivefold dilutions per compound was transferred to the assay plate, compound dilutions were tested in duplicates. DMSO was added as backfill to a total volume of 150 nl.
(§5) The assay runs on a fully automated robotic system. To 150 nl of compound dilution 15 μl of a mix including the respective KRAS allele, CRAF (e.g. KRAS (G12D)::CRAF; final assay concentrations see above), GTP nucleotide (Sigma G8877; final assay concentration 10 μM), Lance Eu—W1024 labeled Streptavidin (PerkinElmer, Cat No AD0063; final assay concentration 1.5 nM) and Anti-GST surelight APC (PerkinElmer, Cat No AD0059G; final assay concentration 30 nM) in assay buffer (1×PBS, 0.1% BSA, 0.05% Tween 20) are added into columns 1-23 and 15 μL of the solution without the respective KRAS allele were added to row 24.
(§6) Plates are kept at room temperature in a darkened incubator. After 60 minutes incubation time the signal is measured in a PerkinElmer Envision HTS Multilabel Reader using the TR-FRET LANCE Ultra specs from PerkinElmer.
(§7) Each plate contains 16 wells of a negative control (diluted DMSO instead of test compound; w respective KRAS allele; column 23) and 16 wells of a positive control (diluted DMSO instead of test compound; w/o respective KRAS allele; column 24).
(§8) IC50 values were calculated and analyzed with Boehringer Ingelheim's MEGALAB 50 application using a 4 parametric logistic model.
(§9) Tables of example compounds disclosed herein contain IC50 values determined using the above assays (see Table 44).

[2] = target: KRAS (G12V)::CRAF protein::protein interaction (Homo sapiens (Human), UniProt P01116, C118S/G12V); assay: KRAS TR-FRET assay (KRAS G12V::CRAF, GTP); format: binding
Chain of KRAS (G12V)::CRAF protein::protein interaction (P01116 other isoform, or with tags, fused parts or gaps G12V/C118S): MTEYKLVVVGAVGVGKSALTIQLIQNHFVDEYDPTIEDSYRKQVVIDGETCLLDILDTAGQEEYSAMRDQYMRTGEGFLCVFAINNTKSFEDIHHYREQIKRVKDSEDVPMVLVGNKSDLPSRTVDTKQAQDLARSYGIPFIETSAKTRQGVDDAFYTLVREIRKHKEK
Procedure: as §1, §2
KRAS (G12V) 1-169, C118S, N-terminal 6His-tag, C-terminal avi-tag (Boehringer Ingelheim in house protein prep); final assay concentration 15 nM.
as §3, §4, §5, §6, §7, §8, §9

[3] = target: KRAS (WT)::CRAF protein::protein interaction (Homo sapiens (Human), UniProt P01116); assay: KRAS TR-FRET assay (KRAS WT::CRAF, GTP); format: binding
Chain of KRAS (WT)::CRAF protein::protein interaction (P01116 other isoform, or with tags, fused parts or gaps): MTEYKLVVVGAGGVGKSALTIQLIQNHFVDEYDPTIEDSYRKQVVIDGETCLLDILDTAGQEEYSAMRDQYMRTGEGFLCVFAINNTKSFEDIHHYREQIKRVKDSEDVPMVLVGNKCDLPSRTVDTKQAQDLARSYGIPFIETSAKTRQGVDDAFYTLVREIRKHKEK
Procedure: as §1, §2
KRAS (WT) 1-169, N-terminal 6His-tag, C-terminal avi-tag (Boehringer Ingelheim in house protein prep); final assay concentration 15 nM.
as §3, §4, §5, §6, §7, §8, §9

AsPC-1 cells = assay: AsPC-1 CTG proliferation assay (120 h) (pancreatic cancer, G12D); format: cell-based; conditions: Homo sapiens, ASPC1
Procedure: (§10) AsPC-1 cells (ATCC CRL-1682) are dispensed into black 384-well plates, flat and clear bottom (Greiner, PNr. 781091) at a density of 500 cells per well in 60 μl RPMI ATCC-Formulation (PAN P04-18047)+10% FCS (fetal calf serum, HyClone, SH30084.03). Cells are incubated overnight at 37° C. in a humidified tissue culture incubator at 5% CO2. Compounds (10 mM stock in DMSO) are added at logarithmic dose series using the ECHO acoustic liquid handler system (Beckman Coulter), normalizing for added DMSO and including DMSO controls. All compound treatments are performed in technical duplicates. For the TO time point measurement, untreated cells are analyzed at the time of compound addition. Plates are incubated for 120 h, and cell viability is measured using CellTiter-Glo luminescent cell viability reagent (Promega product code G7570). Viability (stated as percent of control) is defined as relative luminescence units RLU of each well divided by the RLU of cells in DMSO controls. IC50 values are determined from viability measurements by non-linear regression using a four-parameter model.
(§11) IC50 values of representative compounds according to the invention measured with these assays in the indicated cell lines are presented in Table 46.

SK-CO-1 cells = assay: SK-CO-1 CTG proliferation assay (120 h) (CRC, G12V); format: cell-based; conditions: Homo sapiens
Procedure: as §10, with “SK—CO-1” for “AsPC-1”, “HTB-39)” for “CRL-1682)”, “EMEM (Sigma M5650)+10%” for “RPMI ATCC-Formulation (PAN P04-18047)+10%”
as §11

[4] = Plasma protein binding assay (PPB), equilibrium dialysis; format: in vitro ADME; conditions: bovine, 10% FCS in PBS, read-out: PPB 10% FCS (% fu)
Procedure: Binding of test compounds to plasma was determined using equilibrium dialysis (ED) and quantitative mass spectrometry interfaced with liquid chromatography (LC-MS). In brief, ED was performed with dialysis devices consisting of two chambers separated by a semipermeable membrane with a molecular weight cut-off of 5-10 kg/mol. One chamber was filled with 10% FCS in PBS containing 1-10 μmol/L test compound and the other chamber was filled with phosphate-buffer saline (PBS) with or without dextran. The dialysis chamber was incubated for 3-5 hours at 37° C. After incubation, protein was precipitated from aliquots of each chamber and the concentration of test compound in the supernatant of the plasma-containing compartment (cserum) and of the buffer-containing compartment (cbuffer) was determined by LC-MS. The fraction of unbound test compound (not bound to plasma) (f) was calculated according to the following equation: […]

Chain of KRAS (G12D)::CRAF protein::protein interaction (P01116 other isoform, or with tags, fused parts or gaps G12D): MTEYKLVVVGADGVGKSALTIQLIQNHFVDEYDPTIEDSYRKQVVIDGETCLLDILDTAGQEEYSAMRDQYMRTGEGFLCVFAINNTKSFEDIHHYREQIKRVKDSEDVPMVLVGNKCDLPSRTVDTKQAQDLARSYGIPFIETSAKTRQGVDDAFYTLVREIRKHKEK

Row | pIC50 [1] | pIC50 [2] | pIC50 [3] | pIC50 (AsPC-1 cells) | pIC50 (SK-CO-1 cells) | fraction unbound [4] | SMILES
1 | 7.34 | 7.68 | 7.30 | 6.61 | 8.52 | 0.28 | C[C@H](Oc1nc(-c2onc3c2CCC[C@@]32CCCc3sc(N)c(C#N)c32)nc2c1n(C)c(=O)n2[C@@H]1CCOC1)[C@@H]1CCCN1C [I-20]
2 | 7.07 | 7.43 | 7.02 | 6.49 | 8.30 | 0.16 | CCn1c(=O)n([C@@H]2CCOC2)c2nc(-c3onc4c3CCC[C@@]43CCCc4sc(N)c(C#N)c43)nc(O[C@@H](C)[C@@H]3CCCN3C)c21 [I-21]
3 | 6.86 | 7.22 | 6.88 | 5.96 | 8.05 | 0.19 | C[C@H](Oc1nc(-c2onc3c2CCC[C@@]32CCCc3sc(N)c(C#N)c32)nc2c1n(C)c(=O)n2[C@@H]1CCOC1)[C@@H]1C[C@@H](F)CN1C [I-22]
4 | 7.28 | 7.60 | 7.23 | 6.27 | 8.22 | 0.22 | CO[C@H]1CCN(C)[C@@H]1[C@H](C)Oc1nc(-c2onc3c2CCC[C@@]32CCCc3sc(N)c(C#N)c32)nc2c1n(C)c(=O)n2[C@@H]1CCOC1 [I-23]
5 | 6.25 | 6.82 | 6.13 | 5.56 | 7.12 | 0.18 | C[C@H](Oc1nc(-c2onc3c2CCC[C@@]32CCCc3sc(N)c(C#N)c32)nc2c1n(C)c(=O)n2C1COC1)[C@@H]1CCCN1C [I-24]
6 | – | – | – | 7.24 | 8.22 | 0.12 | CO[C@@H]1C[C@@H]([C@H](C)Oc2nc(-c3noc4c3CCC[C@@]43CCCc4sc(N)c(C#N)c43)nc3c2CN(C2COC2)C[C@]32CCOC2)N(C)C1 [II-14]
7 | – | – | – | 6.63 | 8.30 | 0.1 | C[C@H](Oc1nc(-c2noc3c2CCC[C@@]32CCCc3sc(N)c(C#N)c32)nc2c1CN(C1COC1)C[C@]21CCOC1)[C@@H]1CC[C@H](C)N1C [II-17]
8 | – | – | – | 6.50 | 7.10 | 0.01 | C[C@H](Oc1nc(-c2noc3c2CCC[C@@]32CCCc3sc(N)c(C#N)c32)nc2c1CCC21CCOC1)[C@@H]1CCCN1C (stereo partly drawn) [II-18]

Continued, compound first:

Row | SMILES | pIC50 [1] | pIC50 [2] | pIC50 [3] | pIC50 (AsPC-1 cells) | pIC50 (SK-CO-1 cells) | fraction unbound [4]
9 | COCCn1c(=O)n([C@@H]2CCOC2)c2nc(-c3onc4c3CCC[C@@]43CCCc4sc(N)c(C#N)c43)nc(O[C@@H](C)[C@@H]3CCCN3C)c21 [I-1] | 6.84 | 6.97 | 6.80 | 6.15 | 8.10 | 0.34
10 | CO[C@H]1C[C@@H]([C@H](C)Oc2nc(-c3onc4c3CCC[C@@]43CCCc4sc(N)c(C#N)c43)nc3c2n(C)c(=O)n3[C@@H]2CCOC2)N(C)C1 [I-2] | 6.40 | 6.74 | 6.37 | 5.71 | 7.37 | 0.15
11 | CO[C@@H]1C[C@@H]([C@H](C)Oc2nc(-c3onc4c3CCC[C@@]43CCCc4sc(N)c(C#N)c43)nc3c2n(C)c(=O)n3[C@@H]2CCOC2)N(C)C1 [I-3] | 7.15 | 7.16 | 7.00 | 6.36 | 8.40 | 0.11
12 | C[C@H](Oc1nc(-c2onc3c2CCC[C@@]32CCCc3sc(N)c(C#N)c32)nc2c1n(C)c(=O)n2[C@@H]1CCOC1)[C@@H]1[C@@H](F)CCN1C [I-5] | 6.35 | 6.58 | 6.18 | 6.65 | 7.33 | 0.03
13 | COCCn1c(=O)n(C)c2c(O[C@@H](C)[C@@H]3CCCN3C)nc(-c3onc4c3CCC[C@@]43CCCc4sc(N)c(C#N)c43)nc21 [I-7] | 5.65 | 6.35 | 5.94 | 5.32 | 6.72 | 0.24
14 | C[C@H](Oc1nc(-c2onc3c2CCC[C@@]32CCCc3sc(N)c(C#N)c32)nc2c1[nH]c(=O)n2[C@@H]1CCOC1)[C@@H]1CCCN1C [I-8] | 7.33 | 7.70 | 7.35 | 5.90 | 7.72 | 0.4
15 | C[C@H](Oc1nc(-c2onc3c2CCC[C@@]32CCCc3sc(N)c(C#N)c32)nc2c1n(C)c(=O)n2[C@H]1CCOC1)[C@@H]1CCCN1C [I-9] | 6.38 | 6.70 | 6.21 | 6.12 | 7.12 | 0.25
16 | C[C@H](Oc1nc(-c2onc3c2CCC[C@@]32CCCc3sc(N)c(C#N)c32)nc2c1n(C)c(=O)n2C1CCOCC1)[C@@H]1CCCN1C [I-10] | 6.16 | 6.96 | 6.46 | 5.46 | 7.16 | 0.24
17 | C[C@H](Oc1nc(-c2onc3c2CCC[C@@]32CCCc3sc(N)c(C#N)c32)nc2c1n(C)c(=O)n2[C@H]1CCCOC1)[C@@H]1CCCN1C [I-11] | 6.34 | 6.50 | 6.47 | 5.35 | 6.35 | 0.06
18 | C[C@H](Oc1nc(-c2onc3c2CCC[C@@]32CCCc3sc(N)c(C#N)c32)nc2c1n(C)c(=O)n2[C@@H]1CCCOC1)[C@@H]1CCCN1C [I-12] | 7.21 | 7.66 | 7.43 | 6.49 | 8.30 | 0.18
19 | C[C@H](Oc1nc(-c2onc3c2CCC[C@@]32CCCc3sc(N)c(C#N)c32)nc2c1n(C)c(=O)n2C12COC(C1)C2)[C@@H]1CCCN1C [I-15] | 6.53 | 6.82 | 6.75 | 5.79 | 7.44 | 0.13
